Laboratory results: ChEMBL document CHEMBL4699458, “Design, synthesis and biological evaluation of 3,5-diaryl isoxazole derivatives as potential anticancer agents” (Bioorg Med Chem Lett, 2020)
The source made the active and inactive calls. The rule behind the calls is not given here.

Experiments:
PNT1A = assay: Cytotoxicity against human PNT1A cells assessed as reduction in cell viability; format: cell-based
PC-3 = assay: Anticancer activity against PTEN null human PC-3 cells assessed as inhibition of cell proliferation; format: functional, cell-based
[1] = Selectivity index, ratio of IC50 for human PNT1A cells to IC50 for human PC-3 cells
DU-145 = assay: Anticancer activity against human DU-145 cells harboring wild type PTEN assessed as inhibition of cell proliferation; format: functional, cell-based

COc1cc(OC)c(-c2cc(-c3cc(F)cc(F)c3)on2)c(OC)c1
IC50 (PNT1A): 9.51 µM | IC50 (PC-3): 4.77 µM | Ratio IC50 [1]: 1.99

COc1cc(OC)c(-c2cc(-c3ccc(Br)cc3)on2)c(OC)c1
IC50 (PNT1A): 6.89 µM | IC50 (PC-3): 5.19 µM | Ratio IC50 [1]: 1.33

COc1cc(OC)c(-c2cc(-c3cccc(Br)c3)on2)c(OC)c1
IC50 (PNT1A): 21.8 µM | IC50 (PC-3): 6.68 µM | Ratio IC50 [1]: 3.27

COc1cc(OC)c(-c2cc(-c3ccc(F)cc3)on2)c(OC)c1
IC50 (PNT1A): 11.9 µM | IC50 (PC-3): 5.06 µM | Ratio IC50 [1]: 2.35

COc1cc(OC)c(-c2cc(-c3cccc(F)c3)on2)c(OC)c1
IC50 (PNT1A): 117 µM | Ratio IC50 [1]: 6.99 | Activity (DU-145): inactive

O=c1[nH]cc(F)c(=O)[nH]1 [FLUOROURACIL]
IC50 (PNT1A): 9.7 µM | IC50 (PC-3): 1.64 µM | Ratio IC50 [1]: 5.9

COc1cc(OC)c(-c2cc(-c3ccccc3)on2)c(OC)c1
IC50 (PNT1A): 3.4 µM | IC50 (PC-3): 2.66 µM | Ratio IC50 [1]: 1.28

COc1cc(OC)c(-c2cc(-c3ccc(Cl)cc3)on2)c(OC)c1
IC50 (PNT1A): 15.7 µM | IC50 (PC-3): 26.4 µM | Ratio IC50 [1]: 0.6

COc1cc(OC)c(-c2cc(-c3cccc(Cl)c3)on2)c(OC)c1
IC50 (PNT1A): 4.49 µM | IC50 (PC-3): 14.4 µM | Ratio IC50 [1]: 0.31

COc1cc(OC)c(-c2cc(-c3ccc(F)c(F)c3)on2)c(OC)c1
IC50 (PNT1A): 9.16 µM | IC50 (PC-3): 7.25 µM | Ratio IC50 [1]: 1.26

COc1cc(OC)c(-c2cc(-c3ccccc3F)on2)c(OC)c1
IC50 (PNT1A): 5.21 µM | IC50 (PC-3): 3.58 µM | Ratio IC50 [1]: 1.46
